Experimental data from ChEMBL document CHEMBL1125943, “Preparation of the geometric isomers of DDC, DDA, D4C and D4T as potential anti-HIV agents” (Bioorg Med Chem Lett, 1991).

Columns and labels:
CCRF-CEM [1] = assay: Compound was tested for cellular toxicity against HIV in CEM cells at concentration up to 100 uM; IA means inactive; assay type: cell-based; conditions: human
CCRF-CEM [2] = assay: The inhibitory dose against HIV in CEM cells was evaluated.; assay type: functional, Homo sapiens; conditions: read-out: ID50 (the source's name)

Nc1ccn([C@@H]2C=C[C@H](CO)O2)c(=O)n1 was tested, and the Toxicity (CCRF-CEM [1]) was “Not Active”.
In the case of Cc1cn([C@@H]2C=C[C@H](CO)O2)c(=O)[nH]c1=O, the Toxicity (CCRF-CEM [1]) is reported as “Not Active”.
In the case of Nc1ccn([C@@H]2CC[C@H](CO)O2)c(=O)n1, the IC50 (CCRF-CEM [2]; Homo sapiens, CCRF-CEM) is reported as 0.66 µM.
Nc1ccn([C@H]2CC[C@@H](CO)O2)c(=O)n1 (stereo in doubt; form 2) [ZALCITABINE] showed an IC50 (CCRF-CEM [2]) of 0.04 µM.
With Nc1ncnc2c1ncn2[C@H]1CC[C@@H](CO)O1 (single isomer, unassigned) the Toxicity (CCRF-CEM [1]) was “Not Active”.
In the case of Nc1ccn([C@H]2CC[C@@H](CO)O2)c(=O)n1 (stereo in doubt; form 1) [ZALCITABINE], the IC50 (CCRF-CEM [2]) is reported as less than 0.1 µM.
In the case of Nc1ccn(C2CC[C@H](CO)O2)c(=O)n1 (single isomer, unassigned), the Toxicity (CCRF-CEM [1]) is reported as “Not Active”.
